Legend:
Assay in all cases: relative viability (nuclei count vs DMSO), 5 days (fraction); higher = more cells survive
[1] = compound: CC1(COc2ccc3c(c2)ncn3-c2ccc3cccc(N4CCC(N)CC4)c3n2)COC1 [Crenolanib] + CC(=O)c1c(C)c2cnc(Nc3ccc(N4CCNCC4)cn3)nc2n(C2CCCC2)c1=O [Palbociclib] (partner 0.5 µM)
Procedure, shortened: (§1)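 After 5 days of treatment, lung cancer cells in 1536-well plates were fixed and stained in a single step (final 0.05% Triton X-100, 1% formaldehyde, 1 ug/ml Hoechst) and their nuclei counted on 4× images. Treatment had been applied by pin tool the day after seeding as one drug alone or as a fixed anchor-drug dose with five library-drug doses (not always all listed) in √10 steps. Relative viability is the nuclei count of treated wells divided by that of vehicle wells, and values are medians of duplicate plates.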

[2] = compound: O=C1NC(=O)[C@@H](c2cn3c4c(cccc24)CCC3)[C@@H]1c1c[nH]c2ccccc12 [Tivantinib] + Nc1nc2[nH]cc(CCc3ccc(C(=O)N[C@@H](CCC(=O)O)C(=O)O)cc3)c2c(=O)[nH]1 [Pemetrexed] (partner 0.2 µM)
Procedure, shortened: as §1

[3] = compound: CC1(COc2ccc3c(c2)ncn3-c2ccc3cccc(N4CCC(N)CC4)c3n2)COC1 [Crenolanib] + Cc1nc(NC(=O)N2CCC[C@H]2C(N)=O)sc1-c1ccnc(C(C)(C)C(F)(F)F)c1 [Alpelisib] (partner 2 µM)
Procedure, shortened: as §1

[4] = compound: O=C1NC(=O)[C@@H](c2cn3c4c(cccc24)CCC3)[C@@H]1c1c[nH]c2ccccc12 [Tivantinib] + CS(=O)(=O)N1CCN(Cc2cc3nc(-c4cccc5[nH]ncc45)nc(N4CCOCC4)c3s2)CC1 [Pictilisib] (partner 1 µM)
Procedure, shortened: as §1

Cell Line	relative viability ([1]; first compound 0.01 µM)	relative viability ([1]; first compound 0.03162 µM)	relative viability ([1]; first compound 0.1 µM)	relative viability ([1]; first compound 0.3162 µM)	relative viability ([1]; first compound 1 µM)	relative viability ([2]; first compound 0.01 µM)	relative viability ([2]; first compound 0.03162 µM)	relative viability ([2]; first compound 0.1 µM)	relative viability ([2]; first compound 0.3162 µM)	relative viability ([3]; first compound 0.01 µM)	relative viability ([3]; first compound 0.03162 µM)	relative viability ([3]; first compound 0.1 µM)	relative viability ([3]; first compound 0.3162 µM)	relative viability ([3]; first compound 1 µM)	relative viability ([4]; first compound 0.01 µM)	relative viability ([4]; first compound 0.03162 µM)	relative viability ([4]; first compound 0.1 µM)	relative viability ([4]; first compound 0.3162 µM)
NCI-H2342	0.521	0.545	0.574	0.533	0.598	0.761	0.849	0.771	0.681	–	–	–	–	–	–	–	–	–
SK-MES-1	0.335	0.32	0.31	0.314	0.34	0.95	0.913	0.816	0.783	0.849	0.972	0.866	0.916	0.95	0.413	0.368	0.4	0.213
EPLC-272H	0.336	0.299	0.305	0.339	0.313	0.408	0.356	0.344	0.182	–	0.879	0.821	1.03	0.938	0.346	0.3	0.357	0.278
HCC-44	1.02	0.897	0.939	0.994	0.921	0.62	0.654	0.616	0.664	0.836	0.857	0.718	0.932	0.782	0.69	0.523	0.886	0.728
201T	0.363	0.349	0.341	0.37	0.337	0.328	0.281	0.357	0.319	1.01	1.02	0.998	1.05	1.05	0.713	0.569	0.673	0.694
HOP-62	0.457	0.45	0.461	0.497	0.481	0.333	0.29	0.368	0.247	0.851	0.985	1.03	1.06	0.941	0.708	–	0.864	0.792
NCI-H650	0.308	0.346	0.33	0.32	0.355	1.19	0.842	0.839	0.909	1.14	1.13	0.972	1.06	1.07	0.835	–	0.817	0.8
NCI-H2085	–	0.46	0.475	0.512	0.485	0.975	0.773	0.876	0.75	1.11	0.918	0.948	1.06	1.05	0.477	0.471	0.392	0.515
NCI-H596	–	–	–	–	–	0.503	0.406	0.453	0.426	0.435	0.531	0.494	0.478	0.536	0.427	0.39	0.379	0.334
SK-LU-1	0.368	0.394	0.328	0.412	0.333	0.935	1.06	0.96	1.04	1.04	0.931	0.703	1.27	0.87	0.669	0.524	0.614	0.548
A-427	0.542	–	0.554	0.569	0.51	1.01	1.06	0.99	0.961	1.06	1.1	1.02	1.12	0.977	0.663	0.702	0.677	0.749
NCI-H460	0.165	0.163	0.0988	0.15	0.145	0.059	0.0663	0.0596	0.0576	0.571	0.54	0.41	0.709	0.265	0.331	0.274	0.335	0.33
NCI-H1734	0.515	0.369	0.372	0.338	0.376	0.43	0.352	0.417	0.432	0.707	0.664	0.653	0.855	0.737	0.479	0.395	0.416	0.469
NCI-H1915	0.513	0.57	0.507	0.522	0.389	0.423	0.482	0.495	0.53	1.04	1.07	1.04	1.07	0.874	0.902	0.92	0.93	1.04
Calu-6	–	–	–	–	–	–	–	–	–	1.01	0.92	1	1.17	1.12	0.917	0.931	0.901	0.889
SW 1573	0.369	0.458	0.422	0.368	0.42	0.918	0.797	0.818	0.76	0.824	0.765	0.706	0.954	0.608	0.491	0.52	0.406	0.472
RERF-LC-KJ	1.13	1.03	1.03	1.1	1.05	0.38	0.452	0.445	0.44	0.839	0.761	0.802	1.03	0.73	0.543	0.618	0.51	0.461
EMC-BAC-2	0.525	–	0.551	0.486	0.51	0.457	0.448	0.475	0.479	0.747	0.758	0.68	0.881	0.771	0.562	0.511	0.567	0.527
LK-2	0.667	0.532	0.88	0.734	1.06	0.261	0.286	0.276	0.244	0.637	0.924	1.1	0.956	0.997	0.685	–	0.567	0.496

Source: the supplement of paper PMC10307832
